The test addresses T1, Rhesus PDE2A3 (Macaca mulatta, UniProt B3VTJ2).
T1 construct: made in house; host or cells: AD293 cells, transient transfection; supernatant of sonicated lysate
T1 sequence (B3VTJ2 1-941): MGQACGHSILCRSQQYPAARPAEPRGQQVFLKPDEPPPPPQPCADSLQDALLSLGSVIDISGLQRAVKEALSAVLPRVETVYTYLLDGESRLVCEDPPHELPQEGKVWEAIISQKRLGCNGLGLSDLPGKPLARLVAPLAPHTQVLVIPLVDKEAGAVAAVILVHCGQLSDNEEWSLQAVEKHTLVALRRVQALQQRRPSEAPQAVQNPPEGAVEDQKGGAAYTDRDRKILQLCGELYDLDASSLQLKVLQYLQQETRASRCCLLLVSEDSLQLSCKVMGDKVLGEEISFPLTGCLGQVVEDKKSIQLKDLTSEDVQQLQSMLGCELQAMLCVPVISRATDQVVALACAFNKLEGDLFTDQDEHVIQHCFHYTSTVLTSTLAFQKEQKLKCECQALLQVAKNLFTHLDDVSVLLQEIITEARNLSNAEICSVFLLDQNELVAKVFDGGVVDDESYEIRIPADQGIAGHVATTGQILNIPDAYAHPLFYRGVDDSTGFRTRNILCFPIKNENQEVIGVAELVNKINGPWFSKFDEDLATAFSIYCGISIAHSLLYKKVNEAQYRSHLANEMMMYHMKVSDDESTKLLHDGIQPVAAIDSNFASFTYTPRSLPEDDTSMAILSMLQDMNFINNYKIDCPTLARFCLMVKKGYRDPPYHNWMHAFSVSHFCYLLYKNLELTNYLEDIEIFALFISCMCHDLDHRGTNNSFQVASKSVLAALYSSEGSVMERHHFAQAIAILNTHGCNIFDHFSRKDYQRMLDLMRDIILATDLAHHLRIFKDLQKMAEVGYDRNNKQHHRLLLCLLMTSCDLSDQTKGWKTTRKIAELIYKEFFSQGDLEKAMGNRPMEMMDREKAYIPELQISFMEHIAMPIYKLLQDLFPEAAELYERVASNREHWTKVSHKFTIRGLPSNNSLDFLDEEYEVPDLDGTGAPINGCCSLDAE
In words: PDE2 fluorescence polarization (IMAP FP) inhibition assay, rhesus PDE2A3. The test is classed as biochemical, rhesus macaque. In short, it runs like this: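 Enzyme source was the lysate supernatant of AD293 cells transiently expressing rhesus PDE2A3, diluted to give 20% conversion of 50 nM FAM-cAMP, with 1 µM cGMP as activator. Buffer was 10 mM Tris pH 7.2, 10 mM MgCl2, 1 mM DTT.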
(Fluorescence polarisation rises when a labelled molecule tumbles more slowly, as on binding a larger partner.)

[1] abbreviates: Lab A, read-out: Rhesus PDE2 Ki (nM) Lab A.
[2] abbreviates: Lab B, read-out: Rhesus PDE2 Ki (nM) Lab B.

Read-outs that look alike come from different tables or passages of the source.

On to `COc1cccc(-c2nc3c(c(C)nn3C(C)c3ccc(C(F)(F)F)cc3)c(=O)[nH]2)c1` (centres unmarked) [Example 47, 6-(3-Methoxyphenyl)-3-methyl-1-{1-[4-(trifluoromethyl)phenyl]ethyl}-1,5-dihydro-4H-pyrazolo[3,4-d]pyrimidin-4-one], for which, under setting [1], the Ki (in general, a dissociation constant, usually derived from enzyme kinetics or from competition with a known ligand) was 18 nM.

Take `Cc1nc2c(c(C(C)(C)O)nn2C(C)c2ccc(C(F)(F)F)cc2)c(=O)[nH]1` (centres unmarked) [Example 326, 3-(1-Hydroxy-1-methylethyl)-6-methyl-1-{1-[4-(trifluoromethyl)phenyl]ethyl}-1,5-dihydro-4H-pyrazolo[3,4-d]pyrimidin-4-one]: the Ki under setting [1] worked out at 134 nM.

As for `Cc1nc2c(c(C(F)F)nn2C(C)c2ccc(OC(F)F)cc2)c(=O)[nH]1` (single isomer, unassigned) [Example 182, (S)- or (R)-1-(1-(4-(Difluoromethoxy)phenyl)ethyl)-3-(difluoromethyl)-6-methyl-1H-pyrazolo[3,4-d]pyrimidin-4(5H)-one], the Ki under setting [2] is 1.2 nM.

As for `Cc1nc2c(c(CO)nn2C(C)c2ccc(C(F)(F)F)c(F)c2)c(=O)[nH]1` (centres unmarked) [Example 1, 1-(1-(3-Fluoro-4-(trifluoromethyl)phenyl)ethyl)-3-(hydroxymethyl)-6-methyl-1H-pyrazolo[3,4-d]pyrimidin-4(5H)-one], the Ki reads like this: under setting [1], 4.1 nM; under setting [2], 7.2 nM.

Consider `Cc1nc2c(c(CO)nn2C(c2ccc(OC(F)(F)F)cc2)C2CC2)c(=O)[nH]1` (single isomer, unassigned) [Example 95, (S)- or (R)-1-(Cyclopropyl(4-(trifluoromethoxy)phenyl)methyl)-3-(hydroxymethyl)-6-methyl-1H-pyrazolo[3,4-d]pyrimidin-4(5H)-one], for which the Ki under setting [2] came out at 2.1 nM.

`Cc1nc2c(c(CF)nn2C(C)c2ccc(S(F)(F)(F)(F)F)cc2)c(=O)[nH]1` (single isomer, unassigned) [Example 200]: the Ki under setting [2] is 2.4 nM.

For `Cc1nc2c(c(CO)nn2C(c2ccc(OC(F)(F)F)c(F)c2)C(C)C)c(=O)[nH]1` (single isomer, unassigned) [Example 127, (S)- or (R)-1-(1-(3-Fluoro-4-(trifluoromethoxy)phenyl)-2-methylpropyl)-3-(hydroxymethyl)-6-methyl-1H-pyrazolo[3,4-d]pyrimidin-4(5H)-one], the Ki under setting [2] is 0.9 nM.

With `Cc1nn(C(C)c2ccc(C(F)(F)F)cc2)c2nc(Cc3ccccc3O)[nH]c(=O)c12` (centres unmarked) [Example 31, 6-(2-Hydroxybenzyl)-3-methyl-1-(1-(4-(trifluoromethyl)phenyl)ethyl)-1H-pyrazolo[3,4-d]pyrimidin-4(5H)-one], the Ki runs as follows: under setting [1], 65 nM; under setting [2], 128 nM.

On to `Cc1nc2c(c(CO)nn2C(c2ccc(C(F)(F)F)cc2)C(C)C)c(=O)[nH]1` (centres unmarked) [Example 5, 3-(Hydroxymethyl)-6-methyl-1-(2-methyl-1-(4-(trifluoromethyl)phenyl)propyl)-1H-pyrazolo[3,4-d]pyrimidin-4(5H)-one], for which the Ki was 0.62 nM under setting [1] and 1 nM under setting [2].

Turning to `Cc1nc2c(c(CF)nn2C(c2ccc(C(F)(F)F)cc2)C(C)C)c(=O)[nH]1` (single isomer, unassigned) [Example 212, (R)- or (S)-3-(Fluoromethyl)-6-methyl-1-(2-methyl-1-(4-(trifluoromethyl)phenyl)propyl)-1H-pyrazolo[3,4-d]pyrimidin-4(5H)-one], under setting [2], the Ki was 54 nM.

In the case of `Cc1nc2c(c(CO)nn2[C@@H](c2ccc(C(C)(C)C)cc2)C(C)C)c(=O)[nH]1` [Example 160, (R)-1-(1-(4-tert-Butylphenyl)-2-methylpropyl)-3-(hydroxymethyl)-6-methyl-1H-pyrazolo[3,4-d]pyrimidin-4(5H)-one], the Ki under setting [2] was determined as 0.3 nM.

`Cc1nc2c(c(CF)nn2C(C)c2ccc(OC(F)(F)F)cc2)c(=O)[nH]1` (single isomer, unassigned) [Example 207, (S)- or (R)-3-(Fluoromethyl)-6-methyl-1-(1-(4-(trifluoromethoxy)phenyl)ethyl)-1H-pyrazolo[3,4-d]pyrimidin-4(5H)-one]: the Ki amounted to 0.46 nM under setting [1] and 0.84 nM under setting [2].

For `Cc1nc2c(c(CF)nn2C(c2ccc(C(F)(F)F)cc2)C2(C)CC2)c(=O)[nH]1` (single isomer, unassigned) [Example 209], under setting [2], the Ki worked out at 1 nM.

For the compound `COc1ccc(Cc2nc3c(c(C)nn3C(C)c3ccc(C(F)(F)F)cc3)c(=O)[nH]2)cc1` (centres unmarked) [Example 46, 6-(4-Methoxybenzyl)-3-methyl-1-{1-[4-(trifluoromethyl)phenyl]ethyl}-1,5-dihydro-4H-pyrazolo[3,4-d]pyrimidin-4-one], under setting [1], the Ki is 7.1 nM.

Regarding `Cc1nc2c(c(CO)nn2C(C)c2ccc(C(F)(F)F)cc2)c(=O)[nH]1` (single isomer, unassigned) [Example 27, (S)- or (R)-3-(Hydroxymethyl)-6-methyl-1-{1-[4-(trifluoromethyl)phenyl]ethyl]-1,5-dihydro-4H-pyrazolo[3,4-d]pyrimidin-4-one], the Ki worked out at 2 nM under setting [1] and 2.1 nM under setting [2].

Consider `Cc1nc2c(c(CF)nn2C(C)c2ccc(OC(F)(F)F)c(F)c2)c(=O)[nH]1` (single isomer, unassigned) [Example 217, (S)- or (R)-1-(1-(3-Fluoro-4-(trifluoromethoxy)phenyl)ethyl)-3-(fluoromethyl)-6-methyl-1H-pyrazolo[3,4-d]pyrimidin-4(5H)-one], for which the Ki under setting [1] came to 0.39 nM and the Ki under setting [2] worked out at 0.53 nM.

Turning to `Cc1nc2c(c(CO)nn2C(c2ccc(OC(F)(F)F)c(F)c2)C(C)C)c(=O)[nH]1` (single isomer, unassigned) [Example 126, (R)- or (S)-1-(1-(3-Fluoro-4-(trifluoromethoxy)phenyl)-2-methylpropyl)-3-(hydroxyl-methyl)-6-methyl-1H-pyrazolo-[3,4-d]pyrimidin-4(5H)-one], under setting [2], the Ki came out at 6 nM.

Turning to `Cc1nc2c(c(CF)nn2C(C)c2ccc(CC(F)(F)F)cc2)c(=O)[nH]1` (single isomer, unassigned) [Example 211, (S)- or (R)-3-(Fluoromethyl)-6-methyl-1-(1-(4-(2,2,2-trifluoroethyl)phenyl)ethyl)-1H-pyrazolo[3,4-d]pyrimidin-4(5H)-one], under setting [2], the Ki turned out to be 0.49 nM.

As to `Cc1nc2c(c(CF)nn2C(c2ccc(C(F)(F)F)cc2)C(C)C)c(=O)[nH]1` (single isomer, unassigned) [Example 213, (S)- or (R)-3-(Fluoromethyl)-6-methyl-1-(2-methyl-1-(4-(trifluoromethyl)phenyl)propyl)-1H-pyrazolo[3,4-d]pyrimidin-4(5H)-one], under setting [2], the Ki was 0.15 nM.

For `Cc1nn(C(C)c2ccc(C(F)(F)F)cc2)c2nc(CF)[nH]c(=O)c12` (centres unmarked) [Example 51, 6-(Fluoromethyl)-3-methyl-1-{1-[4-(trifluoromethyl)phenyl]ethyl}-1,5-dihydro-4H-pyrazolo[3,4-d]pyrimidin-4-one], the Ki under setting [1] was 79 nM.

As to `Cc1nc2c(c(CO)nn2Cc2ccc(C(F)(F)F)cc2)c(=O)[nH]1` [Example 8, 3-(Hydroxymethyl)-6-methyl-1-[4-(trifluoromethyl)benzyl]-1,5-dihydro-4H-pyrazolo[3,4-d]pyrimidin-4-one], the Ki under setting [1] came to 192 nM.

`CCc1nc2c(c(C)nn2C(C)c2ccc(C(F)(F)F)cc2)c(=O)[nH]1` (centres unmarked) [Example 38, 6-Ethyl-3-methyl-1-{1-[4-(trifluoromethyl)phenyl]ethyl}-1,5-dihydro-4H-pyrazolo[3,4-d]pyrimidin-4-one]: under setting [1], the Ki was 58 nM.

With `COc1ccc(C(=O)c2nc3c(c(C(F)F)nn3C(C)c3ccc(C(F)(F)F)cc3)c(=O)[nH]2)cc1OC` (centres unmarked) [Example 198, 3-(Difluoromethyl)-6-(3,4-dimethoxybenzoyl)-1-(1-(4-(trifluoromethyl)phenyl)ethyl)-1H-pyrazolo[3,4-d]pyrimidin-4(5H)-one], under setting [2], the inhibition constant (Ki) worked out at 17 nM.

On to `COc1ccc(Cc2nc3c(c(C(F)F)nn3C(C)c3ccc(C(F)(F)F)cc3)c(=O)[nH]2)cc1OC` (single isomer, unassigned) [Example 197], for which the inhibitory constant (Ki) under setting [2] was around 0.15 nM.

For `Cc1nc2c(c(CF)nn2C(c2ccc(C(F)(F)F)cc2)C(F)(F)F)c(=O)[nH]1` (centres unmarked) [Example 201, 3-(Fluoromethyl)-6-methyl-1-(2,2,2-trifluoro-1-(4-(trifluoromethyl)phenyl)-ethyl)-1H-pyrazolo[3,4-d]pyrimidin-4(5H)-one], the Ki reads like this: under setting [1], 1.4 nM; under setting [2], 4.1 nM.

The values above are taken from US10160762B2, “6-alkyl dihydropyrazolopyrimidinone compounds as PDE2 inhibitors” (Merck Sharp & Dohme Corp., priority 2015, dated 2018).
